In PubChem BioAssay AID1963441 (Molecular Pharmacology Branch, DTP, NCI, 2024):
One block for each molecule: values may come before it.

Tested on: NCI-H1876 complex spheroid growth, % test/control
Assay: Anticancer human tumor NCI-H1876 cell line growth inhibition [Asc];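 note: compound exposure lasted 7 days starting three days after seeding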;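 for viability, T/C: 100% = DMSO vehicle control wells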
Conditions: for viability, T/C: stronger effect = lower value
Experimental: Multicellular complex tumor spheroid response to apoptosis pathway targeting inhibitors Alrizomadlin, Pelcitoclax, and Dasminapant in combination with a variety of drugs and investigational agents in selected tumor cell lines
The MDM2 inhibitor alrizomadlin, the Bcl-2/Bcl-xL inhibitor pelcitoclax, and the IAPs inhibitor dasminapant were evaluated both individually and in combination with standard of care and investigational anticancer small molecules within a complex spheroid model of solid tumors. . Complex spheroids include a stromal component modeled by human endothelial cells (HUVEC) and fibroblasts modeled by human mesenchymal stem cells (MSCs). The concentration ranges selected for each drug and investigational agent were based upon clinically achievable concentrations if the clinical Cmax of the agent was known.
Compounds. The drugs and investigational agents: alrizomadlin (APG-115; NSC831270), pelcitoclax (APG-1252; NSC835773), dasminapant (APG-1387;NSC834197), TAK-243 (NSC785004), copanlisib (NSC809693), olaparib (NSC753686), talazoparib (NSC767125), cobimetinib (NSC 768068), eltanexor (KPT-8602, NSC 794443), abemaciclib (NSC 768073), sotorasib (NSC818433), adagrasib (NSC 831453), MRTX-1133 (NSC 836407), Iadademestat (ORY1001, NSC 806812), and RMC-4630 (NSC839698), were obtained from the NCI Developmental Therapeutics Program Chemical Repository. The FDA-approved anticancer drug set is available from the Developmental Therapeutics Program at https://dtp.cancer.gov/organization/dscb/obtaining/available plates.htm. […] The stock solutions were prepared in dimethyl sulfoxide (DMSO, Sigma-Aldrich, St. Louis, MO, cat. D2650) at 800-fold the tested concentration and stored at -70 degrees C prior to their use. All drugs and investigational agents were tested over a range starting from a high concentration at or near the clinical Cmax and decreasing in half-log increments. If the clinical Cmax for an agent had not been determined, the highest concentration tested was 10 microM.
The patient-derived cancer (PDC) cell lines include five colon adenocarcinomas: 186277-243-T-J2-PDC, 616215-338-R-J1-PDC, 439559-082-T-J2-PDC, 463943-066-T-J2-PDC, and 519858-162-T-J1-PDC; three pancreatic carcinomas: 323965-272-R-J2-PDC, 521955-158-R6-J3-PDC, and 521955-158-R2-J5-PDC; two uterine sarcomas: 327498-152-R-J2-PDC and 993429-296-R-J1-PDC; two rhabdomyosarcomas: 755483-174-R-J1-PDC and 772245-204-R-J1-PDC; two soft tissue sarcomas: 126254-015-R-J1-PDC and 494315-158-R-J1-PDC; two malignant fibrous histiocytomas: 317291-083-R-J1-PDC and 596521-263-R-J1-PDC; two breast carcinomas: 171881-019-R-J1-PDC and 885512-296-R-J2-PDC; and one ovarian carcinoma: 6556581-035-R-J-PDC were obtained from the NCI PDMR, (https://pdmr.cancer.gov). The established cell lines HSSY-2 synovial sarcoma (RRID:CVCL 8719), SYO-1 synovial sarcoma (RRID:CVCL_7146), MPNST malignant peripheral neural sheath tumor were obtained from the Sloan Kettering Institute. The following established cell lines were purchased from the American Type Culture Collection (ATCC, Manassas, VA), Sor the received from the NCI repository:, PANC-1 pancreatic carcinoma (CRL-1469, RRID:CVCL_0480), OVCAR-5 ovarian carcinoma (RRID:CVCL_1628), OVCAR-8 ovarian carcinoma (RRID:CVCL_1629), , MCF-7 breast carcinoma (CRL-12584, RRID:CVCL_0031), MDA-MB-231 breast carcinoma (CRL-12532, RRID:CVCL_0062), NCI-H1876 small cell lung carcinoma (CRL-5902, RRID:CVCL_1503), NCI-H510A small cell lung carcinoma (HTB-184, RRID:CVCL_1565), NCI-H1417 (CRL-5869, RRID:CVCL_1469), and NCI-H196 small cell lung carcinoma (CRL-5823, RRID:CVCL_1509). Dr. Peter Houghton (Greehey Children's Cancer Research Institute, University of Texas Health Science Center, San Antonio, TX) provided Rh-18 rhabdomyosarcoma (RRID:CVCL_1659). Pooled donor human umbilical vein endothelial cells (HUVEC, Lonza, cat. CC-2519) and human mesenchymal stem cells (hMSC, Lonza, cat. PT-2501) were purchased from Lonza (Walkersville, MD).
Cell Culture. […]

[1] = curve of first compound, second compound 0.00949 µM
[2] = curve of first compound, second compound 0.03 µM
[3] = curve of first compound, second compound 0.0949 µM
[4] = curve of first compound, second compound 0.3 µM
[5] = curve of first compound, second compound 0.949 µM
[6] = curve of first compound, second compound 3 µM
[7] = second compound 0.00949 µM, first compound 0.0316 µM
[8] = second compound 0.00949 µM, first compound 0.1 µM
[9] = second compound 0.00949 µM, first compound 0.316 µM
[10] = second compound 0.00949 µM, first compound 1 µM
[11] = second compound 0.03 µM, first compound 0.0316 µM
[12] = second compound 0.03 µM, first compound 0.1 µM
[13] = second compound 0.03 µM, first compound 0.316 µM
[14] = second compound 0.03 µM, first compound 1 µM
[15] = second compound 0.0949 µM, first compound 0.0316 µM
[16] = second compound 0.0949 µM, first compound 0.1 µM
[17] = second compound 0.0949 µM, first compound 0.316 µM
[18] = second compound 0.0949 µM, first compound 1 µM
[19] = second compound 0.3 µM, first compound 0.0316 µM
[20] = second compound 0.3 µM, first compound 0.1 µM
[21] = second compound 0.3 µM, first compound 0.316 µM
[22] = second compound 0.3 µM, first compound 1 µM
[23] = second compound 0.949 µM, first compound 0.0316 µM
[24] = second compound 0.949 µM, first compound 0.1 µM
[25] = second compound 0.949 µM, first compound 0.316 µM
[26] = second compound 0.949 µM, first compound 1 µM
[27] = second compound 3 µM, first compound 0.0316 µM
[28] = second compound 3 µM, first compound 0.1 µM
[29] = second compound 3 µM, first compound 0.316 µM
[30] = second compound 3 µM, first compound 1 µM

- IC50 [1]: > 10 µM
- IC50 [2]: > 10 µM
- IC50 [3]: > 10 µM
- IC50 [4]: > 10 µM
- IC50 [5]: > 10 µM
- IC50 [6]: > 10 µM
SMILES: O=C(c1cc(Cc2n[nH]c(=O)c3ccccc23)ccc1F)N1CCN(C(=O)C2CC2)CC1 + CCN1C(C(=O)NC23CCC(C(=O)O)(CC2)CC3)C(c2cccc(Cl)c2F)C2(C(=O)Nc3cc(Cl)ccc32)C12CCCCC2
- viability, T/C [7]: 99.3%
- viability, T/C [8]: 94.5%
- viability, T/C [9]: 118%
- viability, T/C [10]: 102%
- viability, T/C (second compound 0.00949 µM, first compound 3.16 µM): 100%
- viability, T/C (second compound 0.00949 µM, first compound 10 µM): 80.2%
- viability, T/C [11]: 104%
- viability, T/C [12]: 100%
- viability, T/C [13]: 97.4%
- viability, T/C [14]: 108%
- viability, T/C (second compound 0.03 µM, first compound 3.16 µM): 116%
- viability, T/C (second compound 0.03 µM, first compound 10 µM): 82%
- viability, T/C [15]: 101%
- viability, T/C [16]: 106%
- viability, T/C [17]: 104%
- viability, T/C [18]: 102%
- viability, T/C (second compound 0.0949 µM, first compound 3.16 µM): 112%
- viability, T/C (second compound 0.0949 µM, first compound 10 µM): 85.5%
- viability, T/C [19]: 106%
- viability, T/C [20]: 116%
- viability, T/C [21]: 108%
- viability, T/C [22]: 102%
- viability, T/C (second compound 0.3 µM, first compound 3.16 µM): 112%
- viability, T/C (second compound 0.3 µM, first compound 10 µM): 97%
- viability, T/C [23]: 122%
- viability, T/C [24]: 114%
- viability, T/C [25]: 110%
- viability, T/C [26]: 123%
- viability, T/C (second compound 0.949 µM, first compound 3.16 µM): 117%
- viability, T/C (second compound 0.949 µM, first compound 10 µM): 83.2%
- viability, T/C [27]: 102%
- viability, T/C [28]: 108%
- viability, T/C [29]: 101%
- viability, T/C [30]: 106%
- viability, T/C (second compound 3 µM, first compound 3.16 µM): 98%
- viability, T/C (second compound 3 µM, first compound 10 µM): 76.9%

- IC50 (compound alone, run of 11/15/2022): > 1 µM
- IC50 (curve of compound): > 1 µM
SMILES: CNC(C)C(=O)NC1CN(S(=O)(=O)c2cccc(S(=O)(=O)N3CCC4CCC(C(=O)NC(c5ccccc5)c5ccccc5)N4C(=O)C(NC(=O)C(C)NC)C3)c2)CCC2CCC(C(=O)NC(c3ccccc3)c3ccccc3)N2C1=O (stereo unspecified)
- viability, T/C (compound 0.01 µM): 103% [middle of 9 runs]
- viability, T/C (compound 0.0316 µM): 105% [middle of 9 runs]
- viability, T/C (compound 0.1 µM): 103% [middle of 9 runs]
- viability, T/C (compound 0.316 µM): 101% [middle of 9 runs]
- viability, T/C (compound 1 µM): 93.7% [middle of 9 runs]

- IC50 [1]: > 1 µM
- IC50 [2]: > 1 µM
- IC50 [3]: > 1 µM
- IC50 [4]: > 1 µM
- IC50 [5]: > 1 µM
- IC50 [6]: > 1 µM
SMILES: CCN1CCN(Cc2ccc(Nc3ncc(F)c(-c4cc(F)c5nc(C)n(C(C)C)c5c4)n3)nc2)CC1 + CCN1C(C(=O)NC23CCC(C(=O)O)(CC2)CC3)C(c2cccc(Cl)c2F)C2(C(=O)Nc3cc(Cl)ccc32)C12CCCCC2
- viability, T/C (second compound 0.00949 µM, first compound 0.00316 µM): 103%
- viability, T/C (second compound 0.00949 µM, first compound 0.01 µM): 100%
- viability, T/C [7]: 106%
- viability, T/C [8]: 115%
- viability, T/C [9]: 115%
- viability, T/C [10]: 129%
- viability, T/C (second compound 0.03 µM, first compound 0.00316 µM): 102%
- viability, T/C (second compound 0.03 µM, first compound 0.01 µM): 102%
- viability, T/C [11]: 96.1%
- viability, T/C [12]: 113%
- viability, T/C [13]: 123%
- viability, T/C [14]: 133%
- viability, T/C (second compound 0.0949 µM, first compound 0.00316 µM): 105%
- viability, T/C (second compound 0.0949 µM, first compound 0.01 µM): 95.9%
- viability, T/C [15]: 117%
- viability, T/C [16]: 109%
- viability, T/C [17]: 116%
- viability, T/C [18]: 127%
- viability, T/C (second compound 0.3 µM, first compound 0.00316 µM): 103%
- viability, T/C (second compound 0.3 µM, first compound 0.01 µM): 105%
- viability, T/C [19]: 102%
- viability, T/C [20]: 113%
- viability, T/C [21]: 123%
- viability, T/C [22]: 129%
- viability, T/C (second compound 0.949 µM, first compound 0.00316 µM): 110%
- viability, T/C (second compound 0.949 µM, first compound 0.01 µM): 114%
- viability, T/C [23]: 106%
- viability, T/C [24]: 114%
- viability, T/C [25]: 131%
- viability, T/C [26]: 122%
- viability, T/C (second compound 3 µM, first compound 0.00316 µM): 113%
- viability, T/C (second compound 3 µM, first compound 0.01 µM): 99.2%
- viability, T/C [27]: 109%
- viability, T/C [28]: 108%
- viability, T/C [29]: 116%
- viability, T/C [30]: 111%
